{
  "source": "patent US12509407B2",
  "about": "“Biostimulant agent for treating plants and/or plant seed” (UNIFERX INTERNATIONAL GMBH, priority 2019, dated 2025)",
  "type_in_all_cases": "in vivo",
  "key": {"corn hybrid DKC 3511": {"tested_on": "corn hybrid DKC 3511", "test": "Comparative test 1: field trial, growth of leaf area of corn under heat stress", "conditions": "corn DKC 3511, heat stress >30° C., 10 days after single spray treatment, 1.15 liters protein hydrolysate and/or 0.68 kilograms glycine betaine per hectare", "protocol": "In a first field trial, the effect of the biostimulant agent according to the invention on the Growth of the leaf area of the corn hybrid DKC 3511 under heat stress was investigated. For comparison, the corresponding effect of the individual components protein hydrolysate and betaine was tested in parallel, each in the same amounts as contained in the biostimulant agent.\nThe field trial was conducted in June 2019 on soils with brittle black earth. The humus content was 3.2-3.4% and the depth of the humus layer was 60-70 cm. Soil pH was 6.2-6.6, alkaline hydrolyzed nitrogen content was […] per kilogram, available phosphorus compounds content was […] per kilogram, and available potassium content was 120-130 grams per kilogram. […]\n(§1) All three groups of plants were treated once with the corresponding solution at the same times and with the same quantities. […]\nTo determine the biological effect of the different treatments, the leaf area of the plants (sum of leaf area from the third to the sixth leaf from the top in square meters per hectare of field area) was determined in each case before the start of the treatments and 10 days after the treatment. Thereby, the biological effect corresponds to the determined increase of the leaf area at the end of the study period in percent."}, "[1]": {"tested_on": "sunflower hybrid SI Diamantis", "test": "Comparative test 2: field trial, growth of leaf area of sunflowers under heat stress", "conditions": "heat stress >30° C., 10 days after treatment", "protocol": "(§2) The field trial was conducted in June 2019 on soils with brittle black earth. The humus content was 3.2-3.4% and the depth of the humus layer was 60-70 cm. Soil pH was 6.2-6.6, alkaline hydrolyzed nitrogen content was […] per kilogram, available phosphorus compounds content was […] per kilogram, and available potassium content was […] per kilogram. The average annual precipitation was 633 millimeters, whereas the precipitation in June was 87 millimeters. The average annual temperature was 7.4° C., the average temperature in June was 17.6° C., the average relative humidity was 76%, and the average relative humidity in June was 66%.\n(§3) During the duration of the field trial, the treated plants were exposed to heat stress with daily temperatures exceeding 30° C. […]\nas §1\n(§4) To determine the biological effect of the different treatments, the leaf area of the plants (sum of leaf area from the third to the sixth leaf from the top in square meters per hectare of field area) was determined in each case before the start of the treatments and 10 days after the treatment. Thereby, the biological effect corresponds to the determined increase of the leaf area at the end of the study period in percent. […]"}, "soybean var. Niagara": {"tested_on": "soybean var. Niagara", "test": "Comparative test 3: field trial, increase in leaf area of soybean under heat stress", "conditions": "10 days after treatment, third to sixth leaf from the top", "protocol": "as §2, §3, §1, §4"}},
  "data": [
    {"smiles": "C[N+](C)(C)CC(=O)O", "note": "[betaine, glycine betaine]", "values": [
      {"measurement": "increase in leaf area (biological effect)", "setting": "corn hybrid DKC 3511", "result": 0.2, "unit": "%"},
      {"measurement": "increase in leaf area (biological effect)", "setting": "[1]", "result": "no increase in leaf area was observed at all"},
      {"measurement": "increase in leaf area (biological effect)", "setting": "soybean var. Niagara", "result": "no increase in leaf area was observed at all"}
    ]}
  ]
}
